Results published in patent publication US7557089B2, “Use of derivatives of succinate esters for the treatment of dementia” (priority 2002, dated 2009).
Like-named read-outs stand apart in the source and are kept apart here.

Columns and labels:
[1] = system: memory impairment induced by scopolamine; assay: Step-down passive avoidance test, impairment caused by scopolamine in mice; type: in vivo, Male ICR mice; conditions: for Number of errors: during 5 min; for Number of errors / Latency: scopolamine 1 mg/kg i.p.; for effect on scopolamine-induced impairment of passive avoidance (step-down latency, number of errors): result in words
Experimental: Male ICR mice, 24-28 g, were used. The mice were housed for 2 days period of habituation before experiment. Mice were randomized into groups (n=20).
The mice were administered by gavage of physiological saline, or drugs at different doses, respectively in the negative control, scopolamine group, and test drugs groups. Twice daily for 2 days.
At D3, 30 min after administration of test drugs, scopolamine (1 mg/kg i.p) was administered, except for the control group.
30 min later, each mouse was individually placed onto the safety platform in the box of step-down apparatus. When the mouse stepped down and touched the grid floor, it was given an electric shock with a tension of 36V, and jumped back onto the rubber platform. Each animal was trained for 5 min and returned to the home cage.
24 hours after the learning trial, the animal was again placed on the platform and the step-down latency and the number of step-down events (number of errors) during 5 min were recorded.

[2] = system: Aβ(1-42)-induced memory impairment; assay: Water-maze test, Aβ(1-42)-induced impairment of learning and memory in mice; type: in vivo
Experimental: (§1) Aβ(1-42) (10 μg/mouse) was administered via ICV injection. The sham group was given same volumn of Ringer's solution. One week later, The mice with injection of Aβ(1-42) were randomly divided into 3 groups, and were administered by oral with saline, CE (5 mg/kg) or W6 (1 mg/kg), respectively. Two weeks later, step-down test and water-maze test were performed for evaluating the capacity of learning and memory of mice.
(§2) Water-maze test: Each mouse was first placed on the stairs, then released into the water from position 1 and allowed 120 sec to find the stairs. The mouse received 2 trials per day for 3 days. The starting location varied from position 1 to position 2 and position 3 for the next 2 day. The distance and the dead end increased every day. In D4, the mouse was put into water from position 3, the time to escape from water to the stairs and the number of entering the dead ends (number of errors) were measured. This method is used to evaluate the spatial performance and learning and memory performance of animal.

[3] = system: learning and memory performance impairment caused by permanent occlusion of carotid arteries; assay: Step-down test, permanent occlusion of 2 carotid arteries (2-VO) in mice; type: in vivo
Experimental: (§3) At surgery, under pentobarbital anaesthesia (40 mg/kg i.p.), the common carotid arteries of mice were exposed and occluded with thread permanently and the surrounding skin sutured. Sham-operated controls had their carotids exposed but not occluded. After 1 week, the survival mice with occluded carotids were randomly divided into 3 groups. 2 groups were repeated administered with CE (5 mg/kg, po) or W6 (1 mg/kg, po) daily. Four weeks after surgery, mice were trained and tested in a water maze and step-down apparatus.

[4] = system: learning and memory performance impairment caused by permanent occlusion of carotid arteries; assay: Water-maze test, permanent occlusion of 2 carotid arteries (2-VO) in mice; type: in vivo; conditions: 2-VO mice, four weeks after surgery, dose 1 mg/kg po daily
Excerpt: as §2, §3

[5] = target: Acetylcholinesterase (AchE) (Rattus norvegicus, UniProt P37136); conditions: for inhibition (%): AchE activity, rat forebrain; for AchE activity: rat forebrain homogenate
Chain of Acetylcholinesterase (AchE) (P37136 32-614): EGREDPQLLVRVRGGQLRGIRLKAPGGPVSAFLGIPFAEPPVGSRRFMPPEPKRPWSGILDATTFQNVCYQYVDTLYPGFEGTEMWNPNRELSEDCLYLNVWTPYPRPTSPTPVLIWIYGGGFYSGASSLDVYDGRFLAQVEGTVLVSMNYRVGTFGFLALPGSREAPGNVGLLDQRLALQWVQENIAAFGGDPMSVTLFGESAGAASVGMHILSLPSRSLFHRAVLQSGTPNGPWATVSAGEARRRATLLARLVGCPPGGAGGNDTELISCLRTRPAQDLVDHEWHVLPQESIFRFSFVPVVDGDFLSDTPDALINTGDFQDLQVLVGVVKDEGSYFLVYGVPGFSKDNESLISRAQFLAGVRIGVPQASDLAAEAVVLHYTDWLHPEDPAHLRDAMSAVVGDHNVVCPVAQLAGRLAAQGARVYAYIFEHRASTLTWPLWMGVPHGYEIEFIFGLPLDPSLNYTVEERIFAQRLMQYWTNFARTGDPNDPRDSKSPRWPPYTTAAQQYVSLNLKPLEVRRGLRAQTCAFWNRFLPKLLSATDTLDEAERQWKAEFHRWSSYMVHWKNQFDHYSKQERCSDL
Experimental: The rats were fasting over night and given a single oral dose of drugs. 1 hour later, the rats were decapitated, the forebrains were rapidly removed under ice bath, weighed and homogenized in 0.9% saline using a ultrasonic homogenizer to obtain 10% brain homogenate. The homogenate was centrifuged (6000 rpm) for 20 mins at low temperature, and retained the supernatant. Then the AchE activity was measured with an assay kit.

[6] = system: Aβ(1-42)-induced memory impairment; assay: Step-down test, Aβ(1-42)-induced impairment (ICV injection) in mice; type: in vivo
Experimental: as §1

[7] = system: cycloheximide-induced memory deficit; assay: Step-down passive avoidance test, impairment induced by cycloheximide in mice; type: in vivo; conditions: for Improvement (%): step-down latency; for Improvement (%) / Latency / No. of errors: cycloheximide 120 mg/kg i.p.; for Latency / No. of errors: step-down test; for No. of errors: during 5 min
Experimental: The randomization and the administration of drugs are as before. The mice were administered with cycloheximide (120 mg/kg i.p), except for the control group. 30 min later, each mouse was individually placed onto the platform of the step-down apparatus, and trained for 5 min. The retention test started 24 hours later, the step-down latency and the number of step-down events (number of errors) during 5 min were recorded.

KM mice = assay: Acute toxicity study in mice; type: in vivo; conditions: 0.5 g/kg i.p. or p.o.
Excerpt: KM mice were used for this experiment. 10 male and 10 female mice were included in each group. CE (5 g/kg) or W6-W9 (0.5 g/kg) were given by oral or by i.p. The animals were observed carefully and their body weight were checked every 3 days within 2 weeks.

[8] = step-down test, 2-VO mice, four weeks after surgery, dose 1 mg/kg po daily
[9] = 1 hour after single oral dose 5 mg/kg
[10] = 1 hour after single oral dose 20 mg/kg
[11] = step-down test, Aβ(1-42) 10 μg/mouse ICV, mice, dose 1 mg/kg oral, two weeks

SMILES: CC(C)CC(O[C@@H]1O[C@H](CO)[C@@H](O)[C@H](O)[C@H]1O)(C(=O)OCc1ccc(O[C@@H]2O[C@H](CO)[C@@H](O)[C@H](O)[C@H]2O)cc1)C(O)C(=O)OCc1ccc(O[C@@H]2O[C@H](CO)[C@@H](O)[C@H](O)[C@H]2O)cc1 (stereo partly drawn) [Compound W6, 1,4-bis(β-D-glucopyranosyloxybenzyl)-2-β-D-glucopyranosyl-2-isobutyltartrate]
- Number of errors ([1]; dose 0.03 mg/kg by gavage): 0.2 ± 0.1
- Number of errors ([1]; dose 0.3 mg/kg by gavage): 0.4 ± 0.2
- Number of errors ([1]; dose 3 mg/kg by gavage): 0.3 ± 0.1
- effect on scopolamine-induced impairment of passive avoidance (step-down latency, number of errors) [1]: attenuated the scopolamine-induced impairment of passive avoidance behaviors
- Latency ([1]; dose 0.03 mg/kg by gavage): 283 ± 38 s
- Latency ([1]; dose 0.3 mg/kg by gavage): 259 ± 34 s
- Latency ([1]; dose 3 mg/kg by gavage): 258 ± 17 s
- effect on Aβ(1-42)-induced decrease in spatial working memory ([2]; treatment for 2 weeks, water maze, result in words): significantly improved
- Number of errors ([2]; water-maze test (entering dead ends), Aβ(1-42) 10 μg/mouse ICV, mice, dose 1 mg/kg oral, two weeks): 3.1 ± 0.8
- Escape Latency ([2]; water-maze test, Aβ(1-42) 10 μg/mouse ICV, mice, dose 1 mg/kg oral, two weeks): 46 ± 11 s
- effect on deficits of learning and memory caused by cerebral hypoperfusion ([3]; mice and rats, long term treatment, step-down testing and water-maze testing, result in words): significantly alleviated these changes
- Latency [3, 8]: 253 ± 31 s
- Number of errors [3, 8]: 0.2 ± 0.1
- Escape Latency [4]: 33 ± 19 s
- Number of errors [4]: 5.4 ± 1.4
- inhibition (%) [5, 9]: 0%
- inhibition (%) [5, 10]: 0%
- AchE activity [5, 9]: 0.80 ± 0.16
- AchE activity [5, 10]: 0.72 ± 0.16
- inhibition on activity of AchE ([5]; single dose to rats): no inhibition
- effect on Aβ(1-42)-induced impairment in passive avoidance performance ([6]; mice or rats, treatment for 2 weeks, result in words): significantly blocked
- Latency [6, 11]: 110 ± 37 s
- Number of errors [6, 11]: 0.9 ± 0.2
- effect on cycloheximide-induced reduction of latency and number of errors ([7]; passive avoidance, result in words): significantly reversed the cycloheximide-induced reduction of step-down latency
- Improvement (%) ([7]; dose 1.25 mg/kg): 57%
- Improvement (%) ([7]; dose 2.5 mg/kg): 65%
- Improvement (%) ([7]; dose 5 mg/kg): 38%
- Improvement (%) ([7]; dose 10 mg/kg): 61%
- Latency ([7]; dose 1.25 mg/kg): 211 ± 31 s
- Latency ([7]; dose 2.5 mg/kg): 223 ± 24 s
- Latency ([7]; dose 5 mg/kg): 182 ± 33 s
- Latency ([7]; dose 10 mg/kg): 216 ± 29 s
- No. of errors ([7]; dose 1.25 mg/kg): 0.6 ± 1.2
- No. of errors ([7]; dose 2.5 mg/kg): 0.7 ± 0.9
- No. of errors ([7]; dose 5 mg/kg): 0.4 ± 0.5
- No. of errors ([7]; dose 10 mg/kg): 0.3 ± 0.5
- acute toxicity (animal death and body weight) (KM mice): The result is the same

SMILES: CC(C)CC(O)(C(=O)OCc1ccc(O[C@@H]2O[C@H](CO)[C@@H](O)[C@H](O)[C@H]2O)cc1)C(O)C(=O)OCc1ccc(O[C@@H]2O[C@H](CO)[C@@H](O)[C@H](O)[C@H]2O)cc1 (stereo partly drawn) [Compound W7, 1,4-bis(β-D-glucopyranosyloxybenzyl)-2-isobutyltartrate]
- Number of errors ([1]; dose 0.25 mg/kg by gavage): 0.4 ± 0.7
- Number of errors ([1]; dose 1 mg/kg by gavage): 0.2 ± 0.4
- effect on scopolamine-induced impairment of passive avoidance (step-down latency, number of errors) [1]: attenuated the scopolamine-induced impairment of passive avoidance behaviors
- Latency ([1]; dose 0.25 mg/kg by gavage): 205 ± 142 s
- Latency ([1]; dose 1 mg/kg by gavage): 237 ± 125 s
- acute toxicity (animal death and body weight) (KM mice): The result is the same

SMILES: CC(C)CC(CC(=O)OCc1ccc(O[C@@H]2O[C@H](CO)[C@@H](O)[C@H](O)[C@H]2O)cc1)(O[C@@H]1O[C@H](CO)[C@@H](O)[C@H](O)[C@H]1O)C(=O)OCc1ccc(O[C@@H]2O[C@H](CO)[C@@H](O)[C@H](O)[C@H]2O)cc1 (stereo partly drawn) [Compound W8, 1,4-bis(β-D-glucopyranosyloxybenzyl)-2-β-D-glucopyranosyl-2-isobutylmalate]
- Number of errors ([1]; dose 0.25 mg/kg by gavage): 0.7 ± 0.9
- Number of errors ([1]; dose 1 mg/kg by gavage): 0.3 ± 0.5
- effect on scopolamine-induced impairment of passive avoidance (step-down latency, number of errors) [1]: attenuated the scopolamine-induced impairment of passive avoidance behaviors
- Latency ([1]; dose 0.25 mg/kg by gavage): 197 ± 144 s
- Latency ([1]; dose 1 mg/kg by gavage): 218 ± 127 s
- acute toxicity (animal death and body weight) (KM mice): The result is the same

SMILES: CC(C)CC(O)(CC(=O)OCc1ccc(O[C@@H]2O[C@H](CO)[C@@H](O)[C@H](O)[C@H]2O)cc1)C(=O)OCc1ccc(O[C@@H]2O[C@H](CO)[C@@H](O)[C@H](O)[C@H]2O)cc1 (stereo partly drawn) [Compound W9, 1,4-bis(β-D-glucopyranosyloxybenzyl)-2-hydroxy-2-isobutylmalate]
- Number of errors ([1]; dose 0.25 mg/kg by gavage): 0.8 ± 0.7
- Number of errors ([1]; dose 1 mg/kg by gavage): 0.4 ± 0.5
- effect on scopolamine-induced impairment of passive avoidance (step-down latency, number of errors) [1]: attenuated the scopolamine-induced impairment of passive avoidance behaviors
- Latency ([1]; dose 0.25 mg/kg by gavage): 140 ± 129 s
- Latency ([1]; dose 1 mg/kg by gavage): 210 ± 134 s
- acute toxicity (animal death and body weight) (KM mice): The result is the same
